Laboratory results: PubChem BioAssay (NCI)
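GI50 is the concentration that inhibits growth by half. TGI marks complete inhibition of growth.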

Legend:
Experiment in all cases: growth of human tumour cells (NCI), 384-well format
HL-60(TB) leukemia = tested on: HL-60(TB) leukemia
NCI-H522 lung = tested on: NCI-H522 lung
SR leukemia = tested on: SR leukemia
UACC-62 melanoma = tested on: UACC-62 melanoma
HT29 colon = tested on: HT29 colon
SF-539 CNS = tested on: SF-539 CNS
K-562 leukemia = tested on: K-562 leukemia
TK-10 renal = tested on: TK-10 renal
MDA-MB-231 breast = tested on: MDA-MB-231 breast
786-0 renal = tested on: 786-0 renal
RXF 393 renal = tested on: RXF 393 renal
SK-MEL-5 melanoma = tested on: SK-MEL-5 melanoma
SW-620 colon = tested on: SW-620 colon
SF-295 CNS = tested on: SF-295 CNS
MCF7 breast = tested on: MCF7 breast
CAKI-1 renal = tested on: CAKI-1 renal
MOLT-4 leukemia = tested on: MOLT-4 leukemia
NCI/ADR-RES ovarian = tested on: NCI/ADR-RES ovarian
NCI-H226 lung = tested on: NCI-H226 lung
MDA-MB-468 breast = tested on: MDA-MB-468 breast
HOP-62 NSCLC = tested on: HOP-62 NSCLC
HCC-2998 colon = tested on: HCC-2998 colon
LOX IMVI melanoma = tested on: LOX IMVI melanoma
NCI-H322M lung = tested on: NCI-H322M lung
BT-549 breast = tested on: BT-549 breast
NCI-H23 lung = tested on: NCI-H23 lung
U251 glioblastoma = tested on: U251 glioblastoma
IGROV1 ovarian = tested on: IGROV1 ovarian
UO-31 renal = tested on: UO-31 renal
SK-MEL-2 melanoma = tested on: SK-MEL-2 melanoma
A498 renal = tested on: A498 renal
NCI-H460 NSCLC = tested on: NCI-H460 NSCLC
A549 NSCLC = tested on: A549 NSCLC
SK-OV-3 ovarian = tested on: SK-OV-3 ovarian
HCT-116 colon = tested on: HCT-116 colon
DU-145 prostate = tested on: DU-145 prostate
HOP-92 NSCLC = tested on: HOP-92 NSCLC
SK-MEL-28 melanoma = tested on: SK-MEL-28 melanoma
MDA-MB-435 melanoma = tested on: MDA-MB-435 melanoma
UACC-257 melanoma = tested on: UACC-257 melanoma
M14 melanoma = tested on: M14 melanoma
T-47D breast = tested on: T-47D breast
OVCAR-8 ovarian = tested on: OVCAR-8 ovarian
OVCAR-3 ovarian = tested on: OVCAR-3 ovarian
CCRF-CEM leukemia = tested on: CCRF-CEM leukemia
PC-3 prostate = tested on: PC-3 prostate
RPMI-8226 leukemia = tested on: RPMI-8226 leukemia
ACHN renal = tested on: ACHN renal
SN12C renal = tested on: SN12C renal
OVCAR-4 ovarian = tested on: OVCAR-4 ovarian
SNB-19 CNS = tested on: SNB-19 CNS
COLO 205 colon = tested on: COLO 205 colon
HCT-15 colon = tested on: HCT-15 colon
KM12 colon = tested on: KM12 colon
MALME-3M melanoma = tested on: MALME-3M melanoma
OVCAR-5 ovarian = tested on: OVCAR-5 ovarian
SF-268 CNS = tested on: SF-268 CNS

CC1(C)CCC2(CC1)N[C@@H](C(=O)N[C@@H]1CC[C@@H](C(N)=O)OC1)[C@H](c1ccnc(Cl)c1F)[C@]21C(=O)Nc2cc(Cl)ccc21
GI50 (HL-60(TB) leukemia): 2110 nM | TGI (HL-60(TB) leukemia): 3550 nM | GI50 (NCI-H522 lung): 1580 nM | TGI (NCI-H522 lung): 3020 nM | GI50 (SR leukemia): < 10 nM | GI50 (UACC-62 melanoma): < 10 nM | TGI (UACC-62 melanoma): 1070 nM | GI50 (HT29 colon): 1730 nM | TGI (HT29 colon): 3240 nM | GI50 (SF-539 CNS): 1660 nM | TGI (SF-539 CNS): 3120 nM | GI50 (K-562 leukemia): 1640 nM | TGI (K-562 leukemia): 3030 nM | GI50 (TK-10 renal): 2500 nM | TGI (TK-10 renal): 7330 nM | GI50 (MDA-MB-231 breast): 1820 nM | TGI (MDA-MB-231 breast): 3400 nM | GI50 ([…]-0 renal): 2020 nM | TGI (786-0 renal): 4300 nM | GI50 (RXF 393 renal): 1420 nM | TGI (RXF 393 renal): 2840 nM | GI50 (SK-MEL-5 melanoma): 668 nM | TGI (SK-MEL-5 melanoma): 2070 nM | GI50 (SW-620 colon): 3320 nM | TGI (SW-620 colon): 11100 nM | GI50 (SF-295 CNS): 1740 nM | TGI (SF-295 CNS): 3290 nM | GI50 (MCF7 breast): 31.2 nM | TGI (MCF7 breast): 741 nM | GI50 (CAKI-1 renal): < 10 nM | TGI (CAKI-1 renal): 347 nM | GI50 (MOLT-4 leukemia): < 10 nM | TGI (MOLT-4 leukemia): 11.9 nM | GI50 (NCI/ADR-RES ovarian): 14000 nM | TGI (NCI/ADR-RES ovarian): 27200 nM | GI50 (NCI-H226 lung): 11.8 nM | TGI (NCI-H226 lung): 65.9 nM | GI50 (MDA-MB-468 breast): 1930 nM | TGI (MDA-MB-468 breast): 3710 nM | GI50 (HOP-62 NSCLC): 1850 nM | TGI (HOP-62 NSCLC): 3780 nM | GI50 (HCC-2998 colon): 1340 nM | TGI (HCC-2998 colon): 2700 nM | GI50 (LOX IMVI melanoma): 345 nM | TGI (LOX IMVI melanoma): 1880 nM | GI50 (NCI-H322M lung): 2300 nM | TGI (NCI-H322M lung): 5990 nM | GI50 (BT-549 breast): 1740 nM | TGI (BT-549 breast): 3780 nM | GI50 (NCI-H23 lung): 2040 nM | TGI (NCI-H23 lung): 5350 nM | GI50 (U251 glioblastoma): 2080 nM | TGI (U251 glioblastoma): 4450 nM | GI50 (IGROV1 ovarian): 224 nM | TGI (IGROV1 ovarian): 2440 nM | GI50 (UO-31 renal): 78.5 nM | TGI (UO-31 renal): 335 nM | GI50 (SK-MEL-2 melanoma): 1880 nM | TGI (SK-MEL-2 melanoma): 3320 nM | GI50 (A498 renal): 24.4 nM | TGI (A498 renal): 971 nM | GI50 (NCI-H460 NSCLC): 31.2 nM | TGI (NCI-H460 NSCLC): 1130 nM | GI50 (A549 NSCLC): 74.6 nM | TGI (A549 NSCLC): 1300 nM | GI50 (SK-OV-3 ovarian): 1800 nM | TGI (SK-OV-3 ovarian): 3670 nM | GI50 (HCT-116 colon): 35.2 nM | TGI (HCT-116 colon): 1390 nM | GI50 (DU-145 prostate): 2660 nM | TGI (DU-145 prostate): 6740 nM | GI50 (HOP-92 NSCLC): 1710 nM | TGI (HOP-92 NSCLC): 3530 nM | GI50 (SK-MEL-28 melanoma): 1710 nM | TGI (SK-MEL-28 melanoma): 3150 nM | GI50 (MDA-MB-435 melanoma): 1810 nM | TGI (MDA-MB-435 melanoma): 3440 nM | GI50 (UACC-257 melanoma): 94.6 nM | TGI (UACC-257 melanoma): 490 nM | GI50 (M14 melanoma): 47.3 nM | TGI (M14 melanoma): 2030 nM | GI50 (T-47D breast): 1630 nM | TGI (T-47D breast): 4100 nM | GI50 (OVCAR-8 ovarian): 2400 nM | TGI (OVCAR-8 ovarian): 5610 nM | GI50 (OVCAR-3 ovarian): 1660 nM | TGI (OVCAR-3 ovarian): 3220 nM | GI50 (CCRF-CEM leukemia): 1920 nM | TGI (CCRF-CEM leukemia): 3430 nM | GI50 (PC-3 prostate): 1840 nM | TGI (PC-3 prostate): 3330 nM | GI50 (RPMI-8226 leukemia): 1660 nM | TGI (RPMI-8226 leukemia): 3040 nM | GI50 (ACHN renal): 28.5 nM | TGI (ACHN renal): 650 nM | GI50 (SN12C renal): 2670 nM | TGI (SN12C renal): 7980 nM | GI50 (OVCAR-4 ovarian): 1910 nM | TGI (OVCAR-4 ovarian): 5550 nM | GI50 (SNB-19 CNS): 2350 nM | TGI (SNB-19 CNS): 5150 nM | GI50 (COLO 205 colon): 1910 nM | TGI (COLO 205 colon): 3420 nM | GI50 (HCT-15 colon): 1910 nM | TGI (HCT-15 colon): 3690 nM | GI50 (KM12 colon): 1980 nM | TGI (KM12 colon): 3820 nM | GI50 (MALME-3M melanoma): 77.7 nM | TGI (MALME-3M melanoma): 1040 nM | GI50 (OVCAR-5 ovarian): 2280 nM | TGI (OVCAR-5 ovarian): 5340 nM | GI50 (SF-268 CNS): 2120 nM | TGI (SF-268 CNS): 4560 nM
